Experimental data reported in patent publication US4999199A, “Pharmaceutical formulations: liposomes incorporating aromatic polyene antibiotics” (priority 1988, dated 1991).

Tests used:
[1] = conventional formulations, parenteral; cited from earlier work
humans = details: given orally to humans; cited from earlier work
various fungi = test: In vitro susceptibility experiments, candicidin compared with amphotericin B; assay type: cell-based; details: experiments in various laboratories including those of the present inventors
[2] = cited from earlier work
[3] = system: human red blood cells (RBC); test: In vitro toxicity toward red blood cells (hemoglobin release, hemolysis); details: at 75 Mg/ml (so in the source); 20% human RBC, 45 minutes at 37° C.; hypotonic water = 100% lysis
Experimental: The samples were incubated for 45 minutes at 37° C., centrifuged at 10,000 xg for 20 minutes, and the hemoglobin content of the supernatant determined by its light absorbance. The release of hemoglobin by a hypotonic water solution was also measured and was considered to represent 100% lysis.

Compound	persons given amphotericin B who develop decreased renal function and abnormal urine sediment [1]	toxicity on oral administration (humans)	antifungal activity compared with amphotericin B (various fungi)	water solubility [2]	RBC hemolysis [3] [%]
C[C@@H]1[C@H](O)[C@@H](C)/C=C/C=C/C=C/C=C/C=C/C=C/C=C/[C@H](O[C@@H]2O[C@H](C)[C@@H](O)[C@H](N)[C@@H]2O)C[C@@H]2O[C@](O)(C[C@@H](O)C[C@@H](O)[C@H](O)CC[C@@H](O)C[C@@H](O)CC(=O)O[C@H]1C)C[C@H](O)[C@H]2C(=O)O [amphotericin B]	over 80%				
candicidin		without any toxicity	much higher antifungal activity than amphotericin B	totally water insoluble	75
